We go through eleven compounds from patent publication EP0706514B1, “COMPOUNDS AND METHODS FOR INHIBITION OF HIV AND RELATED VIRUSES” (MEDIVIR AB, priority 1993, dated 1995).

SMILES strings stand for the structures. “And” between values parts separate entries of the source, which are not always exact repeats. Equal values may be shown once. Read-outs that look alike come from different tables or passages of the source.

In general, IC50 refers to the concentration at which inhibition is half-maximal. The term inhibition denotes the percentage by which the read-out fell short of the control. Broadly, the % inhibition is how much of the control response was suppressed.

For one assay, the target named is T1, recombinant HIV-RT (Human immunodeficiency virus type 1 group M subtype B, UniProt P04585).
T1 construct: recombinant HIV-RT (diluted in virus disruption buffer to give 200.000 cpm)
The assay is described as follows: biochemical. As to the method: 100 mM Tris-HCl pH 7.6, 100 mM KCl, 4 mM MgCl2, 4 mM DTT, 275 mg/ml BSA, 0.5 mg (rA)n(dT)12-18 and 0.3 mM ^3H-=dTTP (specific activity 18.000 cpm/mol). After 60 minutess of incubation 40 ml in duplicate were spotted on paper discs and washed in 5% TCA. After rinsing the paper discs in ethanol they were dried and counted in scintillation fluid.

Another assay relates to HIV virus. Briefly: Test A (XTT): reduction of virus-induced cytotoxicity in MT4 cells. Particulars: for % inhibition: Test A. In kind it is cell-based. As for the experimental part: Tests A, B, C, and D (XTT)
MT4 cells in a medium of RPMI 1640, 5% FCS, penicillin/streptomycin are adjusted to 2x10^5 cells/ml and seeded into microplates (96 wells/plate) […] cell suspension/well giving 2x10^4 cells/well. The compound to be tested is made into a 10 mg/ml mixture in DMSO and stored at -20°C. […] Further dilutions to […] are made in medium containing microplates. Fifty […] of the 400, 40, and 4 mg/ml are transferred to the cell-containing microplates with a multi-channel pipette (final concentration: […]). Finally, […] of virus suspension is added to each well (with a repetitive "Eppendorf" multipipett). […] The plate is put into a plastic bag and incubated for six days in CO2 atmosphere. To each well in the plate is added […] of XTT ((2,3-bis[2-methoxy-4-nitro-5-sulfophenyl]-5-[(phenylamin o)carbonyl]-2H-tetrazolium hydroxide), (1 mg/ml 0.01-0.02 mM N-metyl-phenazonium methosulfate). After six hours of incubation in CO2 atmosphere the plates are covered with adhesive plate sealers and gently mixed on a vortex. Optical densities are determined at a wavelength of 450 nm and a reference wavelength of 650 nm. The percent reduction of cytotoxocity caused by the virus infection is calculated as follows: (OD450 compound - OD450 inf cells)/(OD450 uninf cells - OD450 inf cells)x 100 [formula]
(In general: Tetrazolium dyes change colour on reduction, which living cells bring about.)

[1] abbreviates: IC50, Test I, several values in a cell are repeat determinations.
Where [2] appears, read: Test I, several values in a cell are repeat determinations, read-out: IC50 (converted).
Where [3] appears, read: Human immunodeficiency virus 1, MT4, Test A, MT4 cells, 0.1 µg/ml, read-out: % inhibition.
Setting [4] is: Human immunodeficiency virus 1, MT4, Test A, MT4 cells, 1 µg/ml.
[5] abbreviates: Human immunodeficiency virus 1, MT4, Test A, MT4 cells, 100 µg/ml, read-out: % inhibition.
[6] abbreviates: Human immunodeficiency virus 1, MT4.

In the case of `N#Cc1ccc(NC(=O)N[C@@H]2C[C@@H]2c2c(F)cccc2F)nc1` (racemic) [Example 26, (+,-)-N-(cis-2-(2,6-Difluorophenyl)-cyclopropyl)-N'-(5-cyanopyrid-2-yl)-urea], on recombinant HIV-RT (setting [1]), the IC50 was 28.6 nM and 31.8 nM.

For the compound `CC(=O)c1ccc(F)c(CCNC(=O)Nc2ccc(Cl)cn2)c1O` [Example 58], the IC50 at recombinant HIV-RT (setting [2]) was 108 nM.

For `N#Cc1ccc(NC(=O)N[C@@H]2C[C@@H]2c2c(F)cccc2Cl)nc1` (relative stereo) [Example 33, N-(cis-2-(2-chloro-6-fluorophenyl)cyclopropyl)-N'-(5-cyanopyrid-2-yl)-urea], the IC50 on recombinant HIV-RT (setting [1]) is 1.51 nM.

In the case of `COCOc1c(C(C)=O)ccc(F)c1[C@H]1C[C@H]1NC(=O)Nc1ccc(Cl)cn1` (racemic) [Example 56, (+,-)-N-(cis-2-(5-Acetyl-2-fluoro-6-methoxymethoxyphenyl)cyclopropyl)-N'-(5-chloropyrid-2-yl)-urea], the IC50 at recombinant HIV-RT (setting [1]) was 5.64 nM and 5.39 nM.

For `O=C(Nc1ccc(Cl)cn1)N[C@@H]1C[C@@H]1c1c(F)cccc1Cl` (relative stereo) [Example 34, N-(cis-2-(2-chloro-6-fluorophenyl)-cyclopropyl) -N'-(5-chloropyrid-2-yl)-urea], the IC50 at recombinant HIV-RT (setting [1]) is 1.18 nM.

As to `O=C(NCCc1c(F)cccc1F)Nc1ccc(Cl)cn1`, the inhibition at 0.1 µg/mL in the assay on HIV virus (setting [3]) came out at 92%. Besides, the inhibition at 1 µg/mL in the assay with HIV virus (setting [4]) stood at 87%. Further, in the assay on HIV virus (Human immunodeficiency virus 1, MT4, Test A, MT4 cells, 10 µg/ml, read-out: % inhibition), the inhibition at 10 µg/mL worked out at 93%. The inhibition at 100 µg/mL in the assay with HIV virus (setting [5]) worked out at 0%. Besides, the “% inhibition” value with HIV virus (MT4 cells, 0.001 µg/ml) is 6%; in the assay with HIV virus (MT4 cells, 0.01 µg/ml), 51% and 94%; in the assay with HIV virus (MT4 cells, 1 µg/ml) it was 98%.

Regarding `O=C(Nc1ccc(Cl)cn1)N[C@H]1C[C@H]1c1c(F)cccc1F`, the half-maximal inhibitory concentration (IC50) on recombinant HIV-RT (IC50, Test I) was 2.47 nM and 1.54 nM. In addition, the “% inhibition” value at recombinant HIV-RT (Test I, 0.001 µg/ml) is recorded as 62%; on recombinant HIV-RT (Test I, 0.01 µg/ml) it was 93%; with HIV virus (MT4 cells, 0.001 µg/ml) it was 8%; in the assay on HIV virus (MT4 cells, 0.01 µg/ml), 81%; with HIV virus (MT4 cells, 1 µg/ml), 90%. The inhibition at 0.001 µg/mL on recombinant HIV-RT (Test I, 0.001 µg/ml) is 55%; in the assay on HIV virus (Human immunodeficiency virus 1, MT4, Test A, MT4 cells, 0.001 µg/ml), 7%. Besides, the inhibition at 0.01 µg/mL at recombinant HIV-RT (Test I, 0.01 µg/ml) was 89%; with HIV virus (Human immunodeficiency virus 1, MT4, Test A, MT4 cells, 0.01 µg/ml), 80%. The inhibition at 0.1 µg/mL on recombinant HIV-RT (Test I, 0.1 µg/ml (column 4)) amounted to 98%; in the assay on HIV virus (setting [6]), 100%; in the assay with HIV virus (setting [3]), 82%. The inhibition at 1 µg/mL on recombinant HIV-RT (Test I, 1 µg/ml) amounted to 100%; in the assay with HIV virus (setting [4]) it was 86%. Further, the inhibition at 10 µg/mL in the assay with HIV virus (setting [6]) is 100%. Also, the inhibition at 100 µg/mL in the assay with HIV virus (setting [6]) turned out to be 100%; in the assay with HIV virus (setting [5]), 3%.

As for `O=C(Nc1ccc(Br)cn1)NC1CC1c1c(F)cccc1F` [Example 27, (1R,2S)-N-(cis-2-(2,6-Difluorophenyl)-cyclopropyl)-N'-5-bromopyrid-2-yl)-urea], at recombinant HIV-RT (setting [2]), the IC50 was 1.36 nM and 1.63 nM.

Turning to `CCOc1ccc(F)c(CCNC(=O)Nc2ccc(Br)cn2)c1Cl`, the IC50 on recombinant HIV-RT (IC50, Test I) was 4.8 nM and 3.36 nM. In addition, at recombinant HIV-RT (Test I, 0.001 µg/ml), the “% inhibition” value was determined as 45% and the inhibition at 0.001 µg/mL amounted to 41%.

As for `O=C(Nc1ccc(Cl)cn1)N[C@@H]1C[C@@H]1c1c(F)ccc(O)c1Cl` (racemic) [Example 64, (+, -)-N-(cis-2-(2-chloro-3-hydroxy-6-fluorophenyl)cyclopropyl)-N'-(5-chloropyrid-2-yl)-urea], the IC50 at recombinant HIV-RT (setting [1]) is 3.65 nM.

Turning to `CC(=O)c1ccc(F)c([C@H]2C[C@H]2NC(=O)Nc2ccc(Cl)cn2)c1O` (racemic) [Example 57, (+,-)-N-(cis-2-(5-Acetyl-2-fluoro-6-hydroxyphenyl)cyclopropyl)-N'-(5-chloropyrid-2-yl)-urea], the concentration for half-maximal inhibition (IC50) on recombinant HIV-RT (setting [1]) was 1.1 nM (2×) and 1.37 nM.
